Results: US20250129070A1, “BIFUNCTIONAL ANDROGEN RECEPTOR COMPOUNDS” (priority 2023, published 2025)

Experiments:
AR / CBP ternary complex = assay: Ternary complex formation assay (sandwich ELISA, AR capture / CBP detection) in VCaP cell lysates; type: cell-based; details: 1.5 hours treatment, sandwich ELISA (AR capture, CBP or p300 detection)
In short: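 Anti-AR (AR 441)-coated plates capture AR from lysates of VCaP cells grown ≥3 days at 50K/well in 5% charcoal-stripped FBS, dosed with bifunctional for 1.5 h and lysed 30 min at 4 °C. Co-captured CBP/p300 is probed with rabbit mAb and HRP anti-rabbit, then QuantaRed fluorescence (570/585) is read at 0, 5 and 15 min.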

VCaP cells = assay: VCaP growth inhibition assay; type: cell-based; details: 30 pM R1881, 9 days, CTG
In short: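 Growth read by CTG luminescence after 9-day exposure to compound (final 100 nM–10 fM, 1:5 steps) plus 30 pM R1881, in phenol red-free DMEM with 5% CSS. Cells pre-incubated 72 h before dosing; IC50 by nonlinear 4-parameter regression.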

| EC50 (AR / CBP ternary complex) [nM] | IC50 (VCaP cells) [nM] | SMILES |
| --- | --- | --- |
| < 1 | ≤ 0.1 | CC(=O)N1CCc2c(c(N3CCCc4cc(-c5cnn(C)c5)c(C)cc43)nn2C2CCN(CC3CCN(c4ncc(C(=O)NC5C(C)(C)C(Oc6ccc(C#N)c(Cl)c6C)C5(C)C)cn4)CC3(C)C)CC2)C1 (stereo not drawn) [Compound 464, 2-[4-[[4-[5-acetyl-3-[7-methyl-6-(1-methylpyrazol-4-yl)-3,4-dihydro-2H-quinolin-1-yl]-6,7-dihydro-4H-pyrazolo[4,3-c]pyridin-1-yl]-1-piperidyl]methyl]-3,3-dimethyl-1-piperidyl]-N-[3-(3-chloro-4-cyano-2-methyl-phenoxy)-2,2,4,4-tetramethyl-cyclobutyl]pyrimidine-5-carboxamide] |
| < 1 | 0.1 to 1 | CC(=O)N1CCc2c(c(N3CCCc4cc(-c5cnn(C)c5)c(C(F)F)cc43)nn2CCOC2CCN(c3ncc(C(=O)NC4C(C)(C)C(Oc5ccc(C#N)c(Cl)c5)C4(C)C)cn3)CC2)C1 (stereo not drawn) [Compound 51, 2-[4-[2-[5-acetyl-3-[7-(difluoromethyl)-6-(1-methylpyrazol-4-yl)-3,4-dihydro-2H-quinolin-1-yl]-6,7-dihydro-4H-pyrazolo[4,3-c]pyridin-1-yl]ethoxy]-1-piperidyl]-N-[3-(3-chloro-4-cyano-phenoxy)-2,2,4,4-tetramethyl-cyclobutyl]pyrimidine-5-carboxamide] |
| < 1 | ≤ 0.1 | CC(=O)N1CCc2c(c(N3CCCc4cc(-c5cnn(C)c5)c(C(F)F)cc43)nn2C2CCN(CCC3CCN(c4ncc(C(=O)NC5C(C)(C)C(Oc6ccc(C#N)c(Cl)c6)C5(C)C)cn4)CC3)CC2)C1 (stereo not drawn) [Compound 174, 2-[4-[2-[4-[5-acetyl-3-[7-(difluoromethyl)-6-(1-methylpyrazol-4-yl)-3,4-dihydro-2H-quinolin-1-yl]-6,7-dihydro-4H-pyrazolo[4,3-c]pyridin-1-yl]-1-piperidyl]ethyl]-1-piperidyl]-N-[3-(3-chloro-4-cyano-phenoxy)-2,2,4,4-tetramethyl-cyclobutyl]pyrimidine-5-carboxamide] |
| < 1 | 0.1 to 1 | CC(=O)N1CCc2c(c(Nc3ccc(-c4cnn(C)c4)cc3F)nn2CCOCCN2CCN(c3ncc(C(=O)NC4C(C)(C)C(Oc5ccc(C#N)c(Cl)c5)C4(C)C)cn3)CC2)C1 (stereo not drawn) [Compound 1, 2-[4-[2-[2-[5-acetyl-3-[2-fluoro-4-(1-methylpyrazol-4-yl)anilino]-6,7-dihydro-4H-pyrazolo[4,3-c]pyridin-1-yl]ethoxy]ethyl]piperazin-1-yl]-N-[3-(3-chloro-4-cyano-phenoxy)-2,2,4,4-tetramethyl-cyclobutyl]pyrimidine-5-carboxamide] |
| < 1 | 0.1 to 1 | CC(=O)N1CCc2c(c(N3CCCc4cc(-c5cnn(C)c5)c(C)cc43)nn2C2CCN(CC3C(C)CN(c4ncc(C(=O)NC5C(C)(C)C(Oc6ccc(C#N)c(Cl)c6)C5(C)C)cn4)CC3C)CC2)C1 (stereo not drawn) [Compound 444, 2-[4-[[4-[5-acetyl-3-[7-methyl-6-(1-methylpyrazol-4-yl)-3,4-dihydro-2H-quinolin-1-yl]-6,7-dihydro-4H-pyrazolo[4,3-c]pyridin-1-yl]-1-piperidyl]methyl]-3,5-dimethyl-1-piperidyl]-N-[3-(3-chloro-4-cyano-phenoxy)-2,2,4,4-tetramethyl-cyclobutyl]pyrimidine-5-carboxamide] |
| < 1 | 0.1 to 1 | CC(=O)N1CCc2c(c(N3CCCc4cc(-c5cnn(C)c5)c(C(F)F)cc43)nn2C2CCN(C3CC4(CCC(Oc5ncc(C(=O)NC6C(C)(C)C(Oc7ccc(C#N)c(Cl)c7)C6(C)C)cn5)CC4)C3)CC2)C1 (stereo not drawn) [Compound 395, 2-[2-[4-[5-acetyl-3-[7-(difluoromethyl)-6-(1-methylpyrazol-4-yl)-3,4-dihydro-2H-quinolin-1-yl]-6,7-dihydro-4H-pyrazolo[4,3-c]pyridin-1-yl]-1-piperidyl]spiro[3.5]nonan-7-yl]oxy-N-[3-(3-chloro-4-cyano-phenoxy)-2,2,4,4-tetramethyl-cyclobutyl]pyrimidine-5-carboxamide] |
| > 100 | > 100 | CC(=O)N1CCc2c(c(N3CCCc4cc(-c5cnn(C)c5)c(C(F)F)cc43)nn2CCCN(C)c2ncc(C(=O)NC3C(C)(C)C(Oc4ccc(C#N)c(Cl)c4)C3(C)C)cn2)C1 (stereo not drawn) [Compound 44, 2-[3-[5-acetyl-3-[7-(difluoromethyl)-6-(1-methylpyrazol-4-yl)-3,4-dihydro-2H-quinolin-1-yl]-6,7-dihydro-4H-pyrazolo[4,3-c]pyridin-1-yl]propyl-methyl-amino]-N-[3-(3-chloro-4-cyano-phenoxy)-2,2,4,4-tetramethyl-cyclobutyl]pyrimidine-5-carboxamide] |
| < 1 | ≤ 0.1 | CC(=O)N1CCc2c(c(N3CCCc4cc(-c5cnn(C)c5)c(C(F)F)cc43)nn2C2CCN(C[C@@H]3CCN(c4ncc(C(=O)NC5C(C)(C)C(Oc6ccc(C#N)c(Cl)c6)C5(C)C)cn4)C[C@@H]3C)CC2)C1 (stereo partly drawn) [Compound 363] |

The next lines start with the molecule.

| SMILES | EC50 (AR / CBP ternary complex) [nM] | IC50 (VCaP cells) [nM] |
| --- | --- | --- |
| COc1cc(OC2C(C)(C)C(NC(=O)c3ccc(N4CC5(CCC(N6CCC(n7nc(N8CCCc9cc(-c%10ccn(C)n%10)c(C(F)F)cc98)c8c7CCN(C(C)=O)C8)CC6)CC5)C4)cc3)C2(C)C)ccc1C#N (stereo not drawn) [Compound 432, 4-[7-[4-[5-acetyl-3-[7-(difluoromethyl)-6-(1-methylpyrazol-3-yl)-3,4-dihydro-2H-quinolin-1-yl]-6,7-dihydro-4H-pyrazolo[4,3-c]pyridin-1-yl]-1-piperidyl]-2-azaspiro[3.5]nonan-2-yl]-N-[3-(4-cyano-3-methoxy-phenoxy)-2,2,4,4-tetramethyl-cyclobutyl]benzamide] | < 1 | ≤ 0.1 |
| COc1cc(OC2C(C)(C)C(NC(=O)c3ccc(N4CCN(CCn5cc(-c6cc7cccc(-c8nn(C9CCOCC9)c9c8CN(C(C)=O)CC9)c7cn6)cn5)CC4)cc3)C2(C)C)ccc1C#N (stereo not drawn) [Compound 249, 4-[4-[2-[4-[8-(5-acetyl-1-tetrahydropyran-4-yl-6,7-dihydro-4H-pyrazolo[4,3-c]pyridin-3-yl)-3-isoquinolyl]pyrazol-1-yl]ethyl]piperazin-1-yl]-N-[3-(4-cyano-3-methoxy-phenoxy)-2,2,4,4-tetramethyl-cyclobutyl]benzamide] | < 1 | 0.1 to 1 |
| Cn1cc(-c2cc3c(cc2C(F)F)N(c2cc(C4CCN(CC5CCN(c6ncc(C(=O)NC7C(C)(C)C(Oc8ccc(C#N)c(Cl)c8)C7(C)C)cn6)CC5)CC4)c4c(c2)n(C)c(=O)n4C)CCC3)cn1 (stereo not drawn) [Compound 214, N-[3-(3-chloro-4-cyano-phenoxy)-2,2,4,4-tetramethyl-cyclobutyl]-2-[4-[[4-[6-[7-(difluoromethyl)-6-(1-methylpyrazol-4-yl)-3,4-dihydro-2H-quinolin-1-yl]-1,3-dimethyl-2-oxo-benzimidazol-4-yl]-1-piperidyl]methyl]-1-piperidyl]pyrimidine-5-carboxamide] | < 1 | 1 to 100 |
| COc1cc(OC2C(C)(C)C(NC(=O)c3ccc(N4CC5(CCC(N6CCC(n7nc(-c8cccc9cc(-c%10cnn(C)c%10)ncc89)c8c7CCN(C(C)=O)C8)CC6)CC5)C4)cc3)C2(C)C)ccc1C#N (stereo not drawn) [Compound 448, 4-[7-[4-[5-acetyl-3-[3-(1-methylpyrazol-4-yl)-8-isoquinolyl]-6,7-dihydro-4H-pyrazolo[4,3-c]pyridin-1-yl]-1-piperidyl]-2-azaspiro [3.5]nonan-2-yl]-N-[3-(4-cyano-3-methoxy-phenoxy)-2,2,4,4-tetramethyl-cyclobutyl]benzamide] | < 1 | 0.1 to 1 |
| COc1cc(OC2C(C)(C)C(NC(=O)c3ccc(N4CCC(C(=O)N5CCC(n6nc(N7CCCc8cc(-c9cnn(C)c9)c(C(F)F)cc87)c7c6CCN(C(C)=O)C7)CC5)CC4)cc3)C2(C)C)ccc1C#N (stereo not drawn) [Compound 252, 4-[4-[4-[5-acetyl-3-[7-(difluoromethyl)-6-(1-methylpyrazol-4-yl)-3,4-dihydro-2H-quinolin-1-yl]-6,7-dihydro-4H-pyrazolo[4,3-c]pyridin-1-yl]piperidine-1-carbonyl]-1-piperidyl]-N-[3-(4-cyano-3-methoxy-phenoxy)-2,2,4,4-tetramethyl-cyclobutyl]benzamide] | < 1 | 0.1 to 1 |
| COc1cc(OC2C(C)(C)C(NC(=O)c3ccc(OC4CC(N5CCC(n6nc(N7CCCc8cc(-c9cnn(C)c9)c(C(F)F)cc87)c7c6CCN(C(C)=O)C7)CC5)C4)cc3)C2(C)C)ccc1C#N (stereo not drawn) [Compound 375, 4-[3-[4-[5-acetyl-3-[7-(difluoromethyl)-6-(1-methylpyrazol-4-yl)-3,4-dihydro-2H-quinolin-1-yl]-6,7-dihydro-4H-pyrazolo[4,3-c]pyridin-1-yl]-1-piperidyl]cyclobutoxy]-N-[3-(4-cyano-3-methoxy-phenoxy)-2,2,4,4-tetramethyl-cyclobutyl]benzamide] | < 1 | 0.1 to 1 |
| CC(=O)N1CCc2c(c(N3CCCc4cc(C#N)ccc43)nn2C2CC3(C2)CN(CC2CC4(C2)CN(c2ncc(C(=O)NC5C(C)(C)C(Oc6ccc(C#N)c(Cl)c6)C5(C)C)cn2)C4)C3)C1 (stereo not drawn) [Compound 221, 2-[6-[[6-[5-acetyl-3-(6-cyano-3,4-dihydro-2H-quinolin-1-yl)-6,7-dihydro-4H-pyrazolo[4,3-c]pyridin-1-yl]-2-azaspiro[3.3]heptan-2-yl]methyl]-2-azaspiro[3.3]heptan-2-yl]-N-[3-(3-chloro-4-cyano-phenoxy)-2,2,4,4-tetramethyl-cyclobutyl]pyrimidine-5-carboxamide] | 1 to 10 | 1 to 100 |
